Here are results for 1 molecule from patent publication US20020028248A1, “RAPID-RELEASE MICRODISPERSIBLE ECADOTRIL PREPARATION” (priority 1996, published 2002).

As usually defined, the solubility is the concentration that dissolves in the medium under given conditions.

Where two headings read alike, the source gives them in different places.

Data set [1] can be described thus: Solubility of Ecadotril in water. Type of data set: physicochemical. Particulars: 37 °C. From the text: Ecadotril (N-[(S)-α-(mercaptomethyl)hydrocinnamoyl]glycine, benzyl ester, acetate(ester); N-[(S)-α-(acetylthiomethyl)hydrocinnamoyl]glycine, benzyl ester) is an enkephalinase inhibitor used as a hypotensive drug, a cardiac insufficiency therapeutic drug, or the like. […] Therefore, when formulated into tablets, capsules, or the like by conventional methods, sufficient absorbability of Ecadotril in the digestive tract cannot be obtained because of low dispersibility of drug particles. Thus, a preparation of Ecadotril with improved bioavailability, in particular a tablet with high content, has been demanded. Generally, it is known that in order to obtain sufficient absorbability of such water-insoluble drugs, the solubility (dissolving rate) of the drugs is enhanced. For example, Japanese Laid-Open Patent Publication No. 7-76516 discloses a method for spray drying dispersions in which finely ground drug particles and a hydrophilic excipient are dispersed in water. However, according to this method, when powder to be obtained is formulated into tablets, there is a possibility that drug particles come into close contact with each other thereby decreasing the disintegration property and absorbability of the preparation. Furthermore, in the case where water-insoluble drugs such as Ecadotril with a low melting point and high plasticity are used, particles are likely to aggregate. […]

A short description of data set [2]: Dissolution test (in vitro test), paddle method. Type of data set: physicochemical. Particulars: 100 mg of the preparation, distilled water 900 ml, 37° C. Here is the method:
(2) Dissolution test (in vitro test) Apparatus: Dissolution test machine in accordance with The 12th revised Japanese Pharmacopoeia using the paddle method a stirring speed 100 rpm. Test solution: Distilled water 900 ml, 37° C. Collection of solution: Eluates are collected 5, 10, 15, 30, 45, and 60 minutes after the commencement of dissolution, and the respective eluates are filtrated through […] 13; Kento Chemical Co., Ltd.) aqueous filter (0.22 μm). Then, about 1.5 ml each of the filtrates is collected. One milliliter of this filtrate or standard solution is mixed with 1 ml of internal standard, and 25 μl of the mixed solution is injected to HPLC.

On to `CC(=O)SC[C@@H](Cc1ccccc1)C(=O)NCC(=O)OCc1ccccc1` [Ecadotril, N-[(S)-α-(mercaptomethyl)hydrocinnamoyl]glycine, benzyl ester, acetate(ester)], for which the solubility was roughly 33 µg/mL in data set [1] (read-out: solubility in water) and 33 µg/mL in data set [1] (read-out: solubility of Ecadotril in water). Further, the “maximum dissolution amount in the present test” value in data set [2] was “about 30%”.
